{
  "source": "patent US20170367390A1",
  "about": "“USE OF ELLAGIC ACID DIHYDRATE IN FOOD PRODUCTS AND NUTRACEUTICALS” (HALO LIFE SCIENCE, LLC, priority 2014, published 2017)",
  "key": {"Activity level in mice": {"experiment": "Activity level in mice", "assay_type": "in vivo, mouse", "conditions": "predicted from in vitro data of Example 5", "from_the_text": "Activity levels in mice treated with ellagic acid dihydrate may be quantified by several procedures, such as those outlined in Turri, M. et al.; QTL Analysis Identifies Multiple Behavioral Dimensions in Ethological Tests of Anxiety in Laboratory Mice; Current Biology; 2001; 11(10): 725-734. Two examples of procedures taught therein follows. Gross Locomotor Activity in Home Cage: Mice are caged singly several days prior to home cage activity monitoring and subsequent testing. Activity in home cages are measured during the first 2 hours of the dark cycle on two consecutive days. Two infrared photo emitter-detector pairs, located outside the clear plastic home cage that divide the cage into three equal areas, are used to record gross locomotor activity on the floor of the home cage as the animal breaks the photo beams. The beam-break activity score consists of the square root of the number of beam breaks for each detector summed across the two test days. Magnitude of Activity in Home Cage: Mice are caged singly several days prior to home cage activity monitoring and subsequent testing. Activity in home cages are measured during the first 2 hours of the dark cycle on two consecutive days. An infrared motion detector located above the top of the home cage is employed to converts all motion sensed within the home cage into arbitrary units, based on the magnitude of activity detected."}, "[1]": {"experiment": "Weight loss and blood glucose in female SWV mice with STZ induced diabetes, 30 days gavage", "assay_type": "in vivo, mouse", "conditions": "STZ diabetic mice; predicted from in vitro data of Example 5", "procedure": "Weight loss and blood glucose in diabetes induced mice treated with ellagic acid was determined and weight loss and blood glucose in mice treated with ellagic acid dihydrate may be determined by the following procedures. Induction of Diabetes: Diabetes is induced in mice by intraperitoneal injection with Streptozotocin (STZ 40 mg/kg) daily for five days. The mice are considered hyperglycemic when the glucose level of each dam is above 200 mg/dL. The mice are fasted for 4 hours before STZ injection and glucose measurement. Treatment: The mice are treated daily for thirty days with ellagic acid or control in the form of a supplemental pill homogenized and suspended in 25% water solution of Cremophor EL. The mice are treated for one month via gavage using the human equivalent dose of 122.4 mg pill/kg of subject (40.6 mg ellagic acid/kg of the subject), the human equivalent does of 40.6 mg ellagic acid/kg of the subject using 98% pure ellagic acid, or control vehicle (25% water solution of Cremophor EL). The human equivalent dose is calculated as described in Example 8. Treatments would start two weeks after the last STZ injection in which hyperglycemia is confirmed in the diabetic mice. The mice would be weighed daily and glucose levels would be measured in fasted animals every five days."}, "GLUT4-GFP": {"system": "GLUT4-GFP", "experiment": "Localization of glucose transporter GLUT4-GFP, time-lapse confocal microscopy in C2C12", "assay_type": "cell-based, mouse", "procedure": "Induction of glucose transporter, GLUT-4, in ellagic acid dihydrate treated cell cultures was studied. Cellular assays were performed using mouse myoblast C2C12 cells. The cells were infected with a fusion glucose transporter 4 green fluorescent protein (GLUT4-GFP). This protein allows the visualization of GLUT4 by imaging the GFP under fluorescent time-lapse microscopy. Frames were compiled to produce time-lapse images of cellular changes with no treatment or treatment with insulin. The localization of glucose transporter (GLUT4-GFP) was performed in final incubation volume of 505 μL, consisting of 500 μl of Hank's Buffer (Invitrogen) and 5 μl of tested compounds. Insulin was used as positive controls and vehicle (0.1% DMSO) as the negative control. All test compounds were prepared in 10% DMSO and diluted 1:100 for a final concentration of 0.1% DMSO (vehicle). The cells were rinsed in Hank's Buffer thrice and then incubated in Hank's Buffer at 37° C. for one hour. The test compounds were added (ellagic acid dihydrate, insulin, or vehicle) and the cells were imaged using laser-confocal microscopy (Leica TCS SP5 X) with FITC fluorescent filters to determine changes in GLUT4-GFP localization. Time-lapse images (TIF) were collected and post-processed using Image-J (NIH) for video construction."}, "glucose oxidase": {"molecular_target": "glucose oxidase (Aspergillus niger, UniProt P13006)", "sequence (P13006 17-605, species assumed)": "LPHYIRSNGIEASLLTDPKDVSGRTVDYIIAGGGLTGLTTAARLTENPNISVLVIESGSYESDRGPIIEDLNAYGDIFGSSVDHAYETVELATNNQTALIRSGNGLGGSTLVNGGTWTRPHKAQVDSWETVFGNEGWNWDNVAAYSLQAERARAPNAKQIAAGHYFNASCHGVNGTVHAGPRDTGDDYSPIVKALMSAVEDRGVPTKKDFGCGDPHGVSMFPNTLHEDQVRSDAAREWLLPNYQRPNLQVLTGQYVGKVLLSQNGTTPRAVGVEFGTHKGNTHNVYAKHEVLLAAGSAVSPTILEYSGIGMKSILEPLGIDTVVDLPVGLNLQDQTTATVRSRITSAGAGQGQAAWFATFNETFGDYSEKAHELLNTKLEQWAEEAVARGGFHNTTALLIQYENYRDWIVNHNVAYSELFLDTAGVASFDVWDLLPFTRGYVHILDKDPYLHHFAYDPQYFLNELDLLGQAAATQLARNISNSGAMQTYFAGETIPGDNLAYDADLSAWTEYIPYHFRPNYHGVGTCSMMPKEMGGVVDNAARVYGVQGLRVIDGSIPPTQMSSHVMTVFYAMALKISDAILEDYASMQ", "experiment": "Direct interaction with glucose, glucose oxidase based glucometer on serum", "assay_type": "biochemical", "conditions": "incubated with serum at room temperature five minutes or overnight at 37° C.", "procedure": "Ellagic acid dihydrate was analyzed for direct interaction with glucose. A glucose oxidase based glucometer was used to measure serum glucose. Ellagic acid dihydrate was incubated with serum at room temperature for five minutes or overnight at 37° C. […] Ellagic acid dihydrate is not believed to directly interact with glucose."}, "[2]": {"experiment": "Saturation of test compound in 100% DMSO", "assay_type": "physicochemical", "procedure": "General Procedure. For Examples 2 through 7, all test compounds of interest were initially dissolved in 100% DMSO. Estimated saturation occurred at approximately 4 mM for ellagic acid dihydrate. The saturated solution was diluted 1:10 in 1×PBS; creating a 100× stock solution of 400 μM ellagic acid dihydrate. Working concentrations (1×), 4 μM, and more dilute concentrations of ellagic acid dihydrate were created by 1:10 dilutions into 0.1% DMSO. The resulting six dilutions ranged from 4 μM to 0.04 nM. Dose curves were analyzed using either Harmony software on the Operetta (Perkin Elmer) or Excel (Microsoft) for flow cytometry, which was performed on a BD Accuri (BD Biosciences)."}},
  "data": [
    {"compound": "O.O.O=c1oc2c(O)c(O)cc3c(=O)oc4c(O)c(O)cc1c4c23", "note": "[ellagic acid dihydrate]", "values": [
      {"measurement": "activity level compared to mice treated with ellagic acid", "setting": "Activity level in mice", "result": "significantly greater activity level"},
      {"measurement": "mean glucose level values compared to mice treated with ellagic acid", "setting": "[1]", "result": "lower mean glucose level values"},
      {"measurement": "weight loss compared to mice treated with ellagic acid", "setting": "[1]", "result": "greater decrease in weight loss"},
      {"measurement": "timing of GLUT4-GFP/membrane process compared with insulin", "setting": "GLUT4-GFP; C2C12, 4000 nM", "result": "slightly delayed"},
      {"measurement": "GLUT4-GFP localization", "setting": "GLUT4-GFP; C2C12, 4000 nM exposure", "result": "decrease in nuclear GLUT4-GFP"},
      {"measurement": "ruffling of filopodia at the surface of the cell", "setting": "GLUT4-GFP; C2C12, 4000 nM exposure", "result": "rapid ruffling of filopodia at the surface of the cell"},
      {"measurement": "inhibition of the glucose oxidase reaction", "setting": "glucose oxidase", "result": "no inhibition of the glucose oxidase reaction was observed"},
      {"measurement": "Estimated saturation", "setting": "[2]", "result": "approximately 4 mM"}
    ]}
  ]
}
